The inhibition is the change of the read-out against control, counted positive when it falls.

T1 sequence (Q15858 whole entry): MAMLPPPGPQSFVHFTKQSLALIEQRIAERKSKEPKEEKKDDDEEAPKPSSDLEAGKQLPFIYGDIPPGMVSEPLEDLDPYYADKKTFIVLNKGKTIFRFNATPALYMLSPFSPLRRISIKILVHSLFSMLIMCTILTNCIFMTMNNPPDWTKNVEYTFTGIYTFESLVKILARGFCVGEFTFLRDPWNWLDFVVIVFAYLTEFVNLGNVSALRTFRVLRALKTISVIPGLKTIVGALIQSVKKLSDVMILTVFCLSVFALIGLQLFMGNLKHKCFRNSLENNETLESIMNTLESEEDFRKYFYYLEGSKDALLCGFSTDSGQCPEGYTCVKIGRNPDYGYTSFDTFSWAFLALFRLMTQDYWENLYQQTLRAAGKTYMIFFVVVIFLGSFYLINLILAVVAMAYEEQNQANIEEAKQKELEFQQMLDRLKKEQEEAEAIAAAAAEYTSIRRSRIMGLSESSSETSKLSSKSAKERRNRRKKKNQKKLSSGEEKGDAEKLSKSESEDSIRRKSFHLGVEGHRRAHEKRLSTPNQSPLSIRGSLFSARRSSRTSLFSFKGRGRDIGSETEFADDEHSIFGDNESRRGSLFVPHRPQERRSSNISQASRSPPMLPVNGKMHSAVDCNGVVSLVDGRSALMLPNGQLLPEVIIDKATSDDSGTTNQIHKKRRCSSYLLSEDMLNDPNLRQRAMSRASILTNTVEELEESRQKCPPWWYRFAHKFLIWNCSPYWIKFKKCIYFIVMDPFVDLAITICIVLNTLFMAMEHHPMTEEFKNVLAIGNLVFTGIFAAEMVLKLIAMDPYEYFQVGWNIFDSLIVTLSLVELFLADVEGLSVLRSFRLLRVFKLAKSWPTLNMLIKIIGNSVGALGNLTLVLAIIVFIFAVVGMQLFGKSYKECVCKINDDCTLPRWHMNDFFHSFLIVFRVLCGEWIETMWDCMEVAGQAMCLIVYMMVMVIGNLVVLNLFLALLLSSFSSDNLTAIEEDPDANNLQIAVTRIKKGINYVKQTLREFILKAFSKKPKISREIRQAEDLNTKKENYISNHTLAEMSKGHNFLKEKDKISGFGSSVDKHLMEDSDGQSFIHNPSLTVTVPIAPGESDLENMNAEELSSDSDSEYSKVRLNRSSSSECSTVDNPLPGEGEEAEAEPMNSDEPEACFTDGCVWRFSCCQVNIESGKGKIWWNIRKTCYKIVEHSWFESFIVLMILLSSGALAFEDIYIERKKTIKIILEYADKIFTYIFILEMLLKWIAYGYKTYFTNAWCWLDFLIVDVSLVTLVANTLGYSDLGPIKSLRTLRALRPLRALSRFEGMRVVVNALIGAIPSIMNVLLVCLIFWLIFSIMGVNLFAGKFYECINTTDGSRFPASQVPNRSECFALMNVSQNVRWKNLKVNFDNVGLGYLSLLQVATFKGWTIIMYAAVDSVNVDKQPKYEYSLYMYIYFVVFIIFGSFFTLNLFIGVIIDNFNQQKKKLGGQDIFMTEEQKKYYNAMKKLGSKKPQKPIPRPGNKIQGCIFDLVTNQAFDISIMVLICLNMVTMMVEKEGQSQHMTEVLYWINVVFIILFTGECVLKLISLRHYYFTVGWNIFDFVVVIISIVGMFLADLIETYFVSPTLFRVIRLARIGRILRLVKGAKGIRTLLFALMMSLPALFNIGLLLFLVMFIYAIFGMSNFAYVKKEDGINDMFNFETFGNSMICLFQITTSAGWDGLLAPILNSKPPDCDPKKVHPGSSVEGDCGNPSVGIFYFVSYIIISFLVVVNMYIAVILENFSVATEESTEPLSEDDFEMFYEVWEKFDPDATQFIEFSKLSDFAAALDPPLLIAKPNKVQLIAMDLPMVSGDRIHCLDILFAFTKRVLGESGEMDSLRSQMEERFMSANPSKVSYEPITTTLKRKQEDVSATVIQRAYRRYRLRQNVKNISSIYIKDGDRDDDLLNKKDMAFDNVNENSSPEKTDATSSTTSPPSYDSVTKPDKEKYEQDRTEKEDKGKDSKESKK

This assay has as its target T1, human Nav1.7 channels (Homo sapiens, UniProt Q15858).
T1 construct: host or cells: HEK293
Kind of assay: hNav1.7 channel assay, whole cell patch clamp, two-pulse protocol. The note with it: TP2 (inactivated phase inhibition), HEK293 cells stably expressing human Nav1.7, read-out: Inhibition activity: percent inhibition on the inactivated state of hNav1.7. Type of assay: cell-based. The text has this:
Whole cell patch clamp technique was used to investigate the inhibitory effects of the compound of Examples on human Nav1.7 channels, stably expressed in HEK293 cells. Human Nav1.7 recombinant cell line (CYL3011-precisION) was purchased from Eurofins.
Two-pulse protocol was used every 10 seconds to assess the state-dependent inhibition by Examples. From the holding potential of −90 mV, pre-pulse (200 ms at −120 mV) was followed by test pulse1 ([…]), then test pulse2 (TP2: 20 ms at 0 mV) was evoked after inter-pulse (20 ms at −100 mV).
Peak current amplitudes were measured for test pulses TP1 (resting phase inhibition) and TP2 (inactivated phase inhibition). The following solutions were used for screening assay: External (mM): 145 NaCl, 1 MgCl2, 1.8 CaCl2, 10 Hepes, 5 Glucose, pH 7.4, 300 mOsm; Internal (mM): 120 CsF, 10 NaCl, 10 EGTA, 10 HEPES, pH 7.2, 290 mOsm.
The inhibition on the inactivated state of hNav1.7 was calculated as: % inhibition (inactivation state)=(1−(ITP2, TA/ITP2, Control)×100%, where ITP2 (the inward peak Na+ currents), Control and ITP2, TA were elicited by the TP2 in control (vehicle only) and in the presence of a test article (TA) indicating Examples, respectively.
Background: Patch clamp records ionic current or voltage across a cell membrane.
As to `O=C(NCc1cccc[n+]1[O-])c1cccc(-c2ccccc2C(F)(F)F)c1` [Example 21, N-[(1-oxidopyridin-1-ium-2-yl)methyl]-3-[2-(trifluoromethyl)phenyl]benzamide], the inhibition at 10 µM is 40 to 70%.
Turning to `Cc1cccc(-c2cccc(C(=O)NCc3cccc[n+]3[O-])c2)c1` [Example 23, 3-(m-tolyl)-N-[(1-oxidopyridin-1-ium-2-yl)methyl]benzamide], the inhibition at 10 µM is 40 to 70%.
With `CC(C)c1ccc(-c2cccc(C(=O)NCc3cccc[n+]3[O-])c2)cc1` [Example 24, 3-(4-isopropylphenyl)-N-[(1-oxidopyridin-1-ium-2-yl)methyl]benzamide], the inhibition at 10 µM fell in the range of 10 to 40%.
`O=C(NCc1cccc[n+]1[O-])c1cccc(-c2ccccc2F)c1` [Example 25, 3-(2-fluorophenyl)-N-[(1-oxidopyridin-1-ium-2-yl)methyl]benzamide]: the inhibition at 10 µM lay in the range of 70 to 100%.
In the case of `COc1cc(Cl)ccc1-c1cccc(C(=O)NCc2cccc[n+]2[O-])c1` [Example 26, 3-(4-chloro-2-methoxy-phenyl)-N-[(1-oxidopyridin-1-ium-2-yl)methyl]benzamide], the inhibition at 10 µM is 10 to 40%.
With `Cc1cc(-c2cccc(C(=O)NCc3cccc[n+]3[O-])c2)ccc1Cl` [Example 28, 3-(4-chloro-3-methyl-phenyl)-N-[(1-oxidopyridin-1-ium-2-yl)methyl]benzamide], the inhibition at 10 µM lay within 70 to 100%.
As to `O=C(NCc1cccc[n+]1[O-])c1cccc(-c2cc(F)cc(Cl)c2)c1` [Example 29, 3-(3-chloro-5-fluoro-phenyl)-N-[(1-oxidopyridin-1-ium-2-yl)methyl]benzamide], the inhibition at 10 µM lay within 70 to 100%.
The value for `O=C(NCc1cccc[n+]1[O-])c1cccc(-c2ccc(Cl)c(F)c2)c1` [Example 30, 3-(4-chloro-3-fluoro-phenyl)-N-[(1-oxidopyridin-1-ium-2-yl)methyl]benzamide] was 40 to 70%.
The value for `O=C(NCc1cccc[n+]1[O-])c1cccc(-c2ccc(F)cc2F)c1` [Example 31, 3-(2,4-difluorophenyl)-N-[(1-oxidopyridin-1-ium-2-yl)methyl]benzamide] was 40 to 70%; that for `O=C(NCc1cccc[n+]1[O-])c1cccc(-c2cc(F)cc(F)c2)c1` [Example 32, 3-(3,5-difluorophenyl)-N-[(1-oxidopyridin-1-ium-2-yl)methyl]benzamide] was 70 to 100%.
Consider `O=C(NCc1cccc[n+]1[O-])c1cccc(-c2cc(F)c(F)c(F)c2)c1` [Example 33, N-[(1-oxidopyridin-1-ium-2-yl)methyl]-3-(3,4,5-trifluorophenyl)benzamide], for which the inhibition at 10 µM fell in the range of 10 to 40%.
For `O=C(NCc1cccc[n+]1[O-])c1cccc(-c2cccc(F)c2F)c1` [Example 34, 3-(2,3-difluorophenyl)-N-[(1-oxidopyridin-1-ium-2-yl)methyl]benzamide], the inhibition at 10 µM was in the range of 10 to 40%.
Regarding `CC(C)c1cccc(-c2cccc(C(=O)NCc3cccc[n+]3[O-])c2)c1` [Example 35, 3-(3-isopropylphenyl)-N-[(1-oxidopyridin-1-ium-2-yl)methyl]benzamide], the inhibition at 10 µM lay within 70 to 100%.
As for `O=C(NCc1cccc[n+]1[O-])c1cccc(-c2ccc(C3CC3)cc2)c1` [Example 36, 3-(4-cyclopropylphenyl)-N-[(1-oxidopyridin-1-ium-2-yl)methyl]benzamide], the inhibition at 10 µM fell in the range of 40 to 70%.
The value for `Cc1cc(C(F)(F)F)ccc1-c1cccc(C(=O)NCc2cccc[n+]2[O-])c1` [Example 38, 3-[2-methyl-4-(trifluoromethyl)phenyl]-N-[(1-oxidopyridin-1-ium-2-yl)methyl]benzamide] was 40 to 70%; that for `O=C(NCc1cccc[n+]1[O-])c1cccc(-c2ccc(F)c(C(F)(F)F)c2)c1` [Example 39, 3-[4-fluoro-3-(trifluoromethyl)phenyl]-N-[(1-oxidopyridin-1-ium-2-yl)methyl]benzamide] was 70 to 100%.
Regarding `COc1ccccc1-c1cccc(C(=O)NCc2cccc[n+]2[O-])c1` [Example 40, 3-(2-methoxyphenyl)-N-[(1-oxidopyridin-1-ium-2-yl)methyl]benzamide], the inhibition at 10 µM fell in the range of 70 to 100%.
As to `O=C(NCc1cccc[n+]1[O-])c1cccc(-c2cc(F)cc(C(F)(F)F)c2)c1` [Example 41, 3-[3-fluoro-5-(trifluoromethyl)phenyl]-N-[(1-oxidopyridin-1-ium-2-yl)methyl]benzamide], the inhibition at 10 µM lay in the range of 10 to 40%.
On to `O=C(NCc1cccc[n+]1[O-])c1cccc(-c2ccc(C(F)(F)F)c(F)c2)c1` [Example 42, 3-[3-fluoro-4-(trifluoromethyl)phenyl]-N-[(1-oxidopyridin-1-ium-2-yl)methyl]benzamide], for which the inhibition at 10 µM was in the range of 40 to 70%.
Consider `Cc1cc(-c2cccc(C(=O)NCc3cccc[n+]3[O-])c2)ccc1C(F)(F)F` [Example 43, 3-[3-methyl-4-(trifluoromethyl)phenyl]-N-[(1-oxidopyridin-1-ium-2-yl)methyl]benzamide], for which the inhibition at 10 µM fell in the range of 70 to 100%.
Turning to `CC(C)(O)c1ccc(-c2cccc(C(=O)NCc3cccc[n+]3[O-])c2)cc1` [Example 44, 3-[4-(1-hydroxy-1-methyl-ethyl)phenyl]-N-[(1-oxidopyridin-1-ium-2-yl)methyl]benzamide], the inhibition at 10 µM was 70 to 100%.
For `COc1cc(-c2cccc(C(=O)NCc3cccc[n+]3[O-])c2)cc(C(F)(F)F)c1` [Example 45, 3-[3-methoxy-5-(trifluoromethyl)phenyl]-N-[(1-oxidopyridin-1-ium-2-yl)methyl]benzamide] the value was 10 to 40%; for `COc1cc(F)c(F)cc1-c1cccc(C(=O)NCc2cccc[n+]2[O-])c1` [Example 47, 3-(4,5-difluoro-2-methoxy-phenyl)-N-[(1-oxidopyridin-1-ium-2-yl)methyl]benzamide], 10 to 40%.
As to `COc1cc(-c2cccc(C(=O)NCc3cccc[n+]3[O-])c2)ccc1Cl` [Example 48, 3-(4-chloro-3-methoxy-phenyl)-N-[(1-oxidopyridin-1-ium-2-yl)methyl]benzamide], the inhibition at 10 µM was in the range of 40 to 70%.
In the case of `COc1cc(-c2cccc(C(=O)NCc3cccc[n+]3[O-])c2)ccc1C(F)(F)F` [Example 49, 3-[3-methoxy-4-(trifluoromethyl)phenyl]-N-[(1-oxidopyridin-1-ium-2-yl)methyl]benzamide], the inhibition at 10 µM lay in the range of 70 to 100%.
As for `COc1ccc(-c2cccc(C(=O)NCc3cccc[n+]3[O-])c2)c(C(F)(F)F)c1` [Example 50, 3-[4-methoxy-2-(trifluoromethyl)phenyl]-N-[(1-oxidopyridin-1-ium-2-yl)methyl]benzamide], the inhibition at 10 µM lay in the range of 40 to 70%.
Take `O=C(NCc1cccc[n+]1[O-])c1cc(-c2cccc(Cl)c2)ccc1F` [Example 52, 5-(3-chlorophenyl)-2-fluoro-N-[(1-oxidopyridin-1-ium-2-yl)methyl]benzamide]: the inhibition at 10 µM lay within 70 to 100%.
As for `COc1cc(Cl)ccc1-c1ccc(F)c(C(=O)NCc2cccc[n+]2[O-])c1` [Example 53, 5-(4-chloro-2-methoxy-phenyl)-2-fluoro-N-[(1-oxidopyridin-1-ium-2-yl)methyl]benzamide], the inhibition at 10 µM fell in the range of 70 to 100%.
`O=C(NCc1cccc[n+]1[O-])c1cc(-c2ccc(F)c(F)c2)ccc1F` [Example 54, 5-(3,4-difluorophenyl)-2-fluoro-N-[(1-oxidopyridin-1-ium-2-yl)methyl]benzamide]: the inhibition at 10 µM lay in the range of 70 to 100%.

These data come from patent US20250333383A1, “N-OXIDE COMPOUNDS AND USE THEREOF” (SK BIOPHARMACEUTICALS CO., LTD., priority 2022, published 2025).
